Experimental data: patent US20200188475A1, “REAGENTS FOR INDUCING AN IMMUNE RESPONSE” (Dana-Farber Cancer Institute, Inc., priority 2007, published 2020)
Ends that are not written are not given here. * marks the point of attachment. R1 = nitroxide spin-labeled side chain, CC1(C)C=C(CS*)C(C)(C)N1[O]

Assays:
4E10 antibody = experiment: SPR (BIAcore) 4E10 binding to MPER variant or spin-labeled peptides on liposomes; details: for decrease of 4E10 binding to the lipid-embedded MPER: mutation of N671 to residues occurring in other viral strains; for 4E10 antibody binding to the spin-labeled MPER peptide: membrane-bound spin-labeled peptides, POPC/POPG liposomes
[1] = target: MPER segment 662-683 of HXB2 strain HIV-1 gp160 (HIV-1 (HXB2 strain)); experiment: SPR, intact IgG over membrane-bound MPER, global fit with a two-step conformational change model
liposomes = experiment: MPER binding to liposomes as a function of membrane composition; details: liposomes of DMPC, 4:1 DOPC:DOPG or HIV membrane-mimicking composition; preliminary studies
[2] = Stability of MPER adsorption to lipid-enveloped PLGA microparticles in serum-containing medium (confocal imaging); assay type: physicochemical; details: culture medium containing 10% FCS in the presence of DCs, FITC-tagged MPER, qualitative; preliminary studies
[3] = Aqueous solubility of the MPER segment; assay type: physicochemical
[4] = target: MPER segment 662-683 of HXB2 strain HIV-1 gp160 (HIV-1 (HXB2 strain)); experiment: ITC at 25 °C, MPER peptide with virion membrane-like liposomes injected into 4E10 Fab

Substance | decrease of 4E10 binding to the lipid-embedded MPER (4E10 antibody) | 4E10 antibody binding to the spin-labeled MPER peptide (4E10 antibody) | other results
N671T: HXB2 MPER single amino acid variant, N671 to T (ELDKWASLWTWFNITNWLWYIK) | severely | – | –
4E10 broadly neutralizing anti-gp41 antibody (intact IgG) | – | – | Kd [1]: 10 nM
ELDKWASLWNWFNITNWLWYIK [MPER] | – | – | order of MPER binding affinity by liposome composition (liposomes): DMPC<DOPC/DOPG<HIV mimic; stability of MPER adsorption [2]: stably adsorbed to lipid-enveloped PLGA microparticles for at least a few hours; solubility in aqueous solutions [3]: can only be solubilized in aqueous solutions in the presence of detergents or lipid vesicles
N671D: HXB2 MPER single amino acid variant, N671 to D (ELDKWASLWDWFNITNWLWYIK) | severely | – | –
N671S: HXB2 MPER single amino acid variant, N671 to S (ELDKWASLWSWFNITNWLWYIK) | moderately | – | –
N671G: HXB2 MPER single amino acid variant, N671 to G (ELDKWASLWGWFNITNWLWYIK) | severely | – | –
F673: MPER 662-683 peptide with cysteine substitution and nitroxide spin label R1 at position F673 (ELDKWASLWNWC(R1)NITNWLWYIK) | – | completely abolished | –
4E10 antigen-binding fragment (Fab) | – | – | Kd [4]: 1000 nM; enthalpy change [4]: -25 kcal/mol; entropic energy change (-TDS) [4]: 16.9 kcal/mol
T676: MPER 662-683 peptide with cysteine substitution and nitroxide spin label R1 at position T676 (ELDKWASLWNWFNIC(R1)NWLWYIK) | – | completely abolished | –
W672: MPER 662-683 peptide with cysteine substitution and nitroxide spin label R1 at position W672 (ELDKWASLWNC(R1)FNITNWLWYIK) | – | completely abolished | –
